Test results taken from paper PMC6522510 (Nature Communications, 2019).

How the values were obtained:
Design in all cases: species or system AML cell lines (8); Primary HTS, single concentration about 10 uM, Cell Titer Glo viability; log10 luminescence, per cent inhibition relative to cycloheximide control
Settings in all cases: 72 h, relative to cycloheximide control, log10 luminescence; inhibitor
CMK = test system: CMK
MOLM-13 = test system: MOLM-13
U937 = test system: U937
CMS = test system: CMS
ML-2 = test system: ML-2
MV4-11 = test system: MV4-11
CHRF288-11 = test system: CHRF288-11
M07e = test system: M07e

Row | SMILES | CMK %inh (CMK) | MOLM-13 %inh (MOLM-13) | U937 %inh (U937) | CMS %inh (CMS) | ML-2 %inh (ML-2) | MV4-11 %inh (MV4-11) | CHRF288-11 %inh (CHRF288-11) | M07e %inh (M07e)
1 | Cn1cc(C2=C(c3cccc(Br)c3)C(=O)NC2=O)c2ccccc21 [SJ000580965-1] | 8.568% | 4.067% | 10.11% | 0.1878% | -0.4526% | 8.448% | 0.5807% | 3.983%
2 | Cc1c(C2=C(c3cn(C)c4ccccc34)C(=O)NC2=O)c2ccccc2n1C [SJ000580966-1] | 42.24% | 2.992% | 14.47% | -2.63% | 15.84% | -0.1129% | 4.622% | 4.858%
3 | Cn1cc(C2=C(c3cn(C)c4ccc(N)cc34)C(=O)NC2=O)c2ccccc21 [SJ000580967-1] | 43.44% | 8.368% | 7.089% | 2.341% | 0.6002% | 0.6883% | 11.3% | 2.999%
4 | C[C@H](O)CNc1cc(-c2[nH]c3cccnc3c2-c2ccc(F)cc2)ccn1 [SJ000580968-1] | 8.696% | 2.412% | 2.723% | -1.462% | -2.119% | 1.217% | -0.7944% | -0.9304%
5 | O=C1NC(=NCCc2ccc(Cl)cc2)S/C1=C\c1ccc2ncccc2c1 [SJ000580969-1] | 0.9453% | 1.832% | -0.9947% | 0.8596% | -0.5014% | 1.31% | 2.273% | -1.208%
6 | Cn1cc(C2=C(c3cn(C)c4cc(C(=O)O)ccc34)C(=O)NC2=O)c2ccccc21 [SJ000580970-1] | 35.03% | 4.437% | -0.7361% | -3.422% | -3.521% | 2.908% | 12.22% | -3.399%
7 | Cn1c(=O)c(Oc2ccc(F)cc2F)cc2cnc(NC(C)(C)CO)nc21 [SJ000580971-1] | 4.061% | 3.693% | 1.382% | -1.762% | -1.151% | 3.201% | 4.115% | 0.06396%
8 | Cn1c(=O)c(Oc2ccc(F)cc2)cc2cnc(NC3CCOCC3)nc21 [SJ000580972-1] | 4.681% | -0.3408% | 2.684% | 3.35% | -0.6256% | -1.036% | 0.05441% | 1.712%
9 | Nc1c(C(=O)c2cccc(C#CCN3CCOCC3)c2)cnn1-c1ccc(F)cc1 [SJ000580973-1] | 37.5% | 2.598% | 6.28% | 0.1973% | 0.4746% | 1.084% | 3.718% | 5.913%
10 | O=C1NC(=NCCc2ccc(Br)cc2)S/C1=C\c1ccc2ncccc2c1 [SJ000580974-1] | 0.3303% | 0.9588% | -2.102% | -2.579% | -0.9884% | 2.317% | -1.536% | -0.6831%
11 | CS(=O)(=O)N1CCC(n2c(=O)c(Oc3ccc(F)cc3F)cc3cnc(NC4CCOCC4)nc32)CC1 [SJ000580975-1] | 5.472% | 0.4331% | 0.9443% | -1.205% | -0.9846% | 2.449% | -0.8918% | 0.9741%
12 | COc1ccc(C2=C(c3cn(C)c4ccccc34)C(=O)NC2=O)cc1 [SJ000580976-1] | 12.52% | 0.836% | 2.922% | -2.297% | -0.4189% | 1.945% | 0.9018% | 2.491%
13 | Cn1cc(C2=C(c3cn(-c4ccccc4)c4ccccc34)C(=O)NC2=O)c2ccccc21 [SJ000580977-1] | 6.892% | 2.403% | 0.1058% | 0.9336% | -1.344% | 3.843% | 2.78% | -0.4981%
14 | Cn1cc(C2=C(c3cn(C)c4ccccc34)C(=O)NC2=O)c2ccccc21 [SJ000580978-1] | 24.68% | 3.271% | 66.13% | 40.67% | 13.32% | 62.31% | -0.8174% | 52.37%
15 | Cn1cc(C2=C(c3ccccc3C(F)(F)F)C(=O)NC2=O)c2ccccc21 [SJ000580979-1] | 21.16% | 4.778% | 1.904% | 5.043% | 0.8133% | 10.38% | 19.74% | -0.07648%
16 | CCCn1cc(C2=C(c3cn(C)c4ccccc34)C(=O)NC2=O)c2ccccc21 [SJ000580980-1] | 44.58% | 64.41% | 35.21% | 13.73% | 30.17% | 13.35% | 31.26% | 35.81%
17 | Cn1cc(C2=C(c3cccc(Cl)c3)C(=O)NC2=O)c2ccccc21 [SJ000580981-1] | -0.373% | -1.961% | 1.717% | -3.182% | -1.322% | -5.929% | 3.619% | 1.057%
18 | O=C1NC(=NCCc2ccccc2F)S/C1=C\c1ccc2ncccc2c1 [SJ000580983-1] | 41.89% | 4.839% | 4.047% | 2.155% | 8.671% | -0.6215% | 13.58% | 0.4729%
19 | COc1ccc(O)c(C(=O)c2ccc(C(=O)N[C@@H]3CCCNC[C@H]3NC(=O)c3ccncc3)cc2)c1F [SJ000580985-1] | 12.77% | 32.45% | 23.19% | 1.516% | 46.48% | 52.11% | 19.87% | 4.451%
20 | Cn1cc(C2=C(Nc3ccccc3)C(=O)NC2=O)c2ccccc21 [SJ000580986-1] | -3.795% | 1.455% | -0.4269% | 2.457% | 0.1627% | -0.9881% | -2.441% | -1.248%
